This experiment relates to CREB. The experiment in a line: Immunoblot of CREB in Ppara-null hippocampal neurons transduced with Ppara constructs. The format is cell-based, mouse. The method, then: (FIG. 17A) Immunoblot analyses followed by densitometric analyses of NR2A (FIG. 17B), GluR1 (FIG. 17C) and CREB (FIG. 17D) were performed in Ppara-null and WT hippocampal neurons treated with 5 μM HEX, 5 μM OCT and 50 μM HMB. Data are mean±SD of three different experiments. ^ap<0.05 versus WT-control. Immunocytochemical analyses of NR2A (FIG. 17E) and GluR1 (FIG. 17F) in WT and Ppara-null hippocampal neurons treated with HEX, OCT and HMB. Hippocampal neurons were transduced with lenti-GFP for 48 h followed by treatment with different ligands. Immunoblot analyses followed by relative densitometric analyses of CREB in Ppara-null hippocampal neurons transduced with lentivirions containing different Ppara constructs followed by treatment with HEX (FIG. 17G-H), OCT (FIG. 17I-J) and HMB (FIG. 17K-L). Bands were scanned and presented as relative to control (FIG. 17H, HEX; FIG. 17J, OCT; FIG. 17L, HMB). Data are mean±SD of three different experiments. ^ap<0.05 vs FLPpara control.
For whole-cell and tissue lysates, samples were homogenized in RIPA buffer containing protease and phosphatase inhibitors (Sigma), passed 10 times through a 26-gauge needle, rotated end over end for 30 min at 4° C., and centrifuged for 10 min at 18,000×g. The supernatant was aliquoted and stored at −80° C. until use. Protein concentrations were determined using a NanoDrop 2000 (Thermo Fisher), and 15-30 μg sample was heat-denatured and resolved on 10% or 12% polyacrylamide-SDS gels, transferred to 0.45 μm nitrocellulose membranes under semidry conditions (15V for 12 min). Membranes were blocked for 1 h with blocking buffer (Li-Cor), incubated with primary antibodies overnight at 4° C. under shaking conditions, washed, incubated with IR-dye-labeled secondary antibodies (1:17,000; Li-Cor) for 45 min at room temperature, washed, and visualized with the Odyssey Infrared Imaging System (Li-Cor). Blots were converted to grayscale and then binary, analyzed using Fiji, and normalized to appropriate loading controls.
(In western blotting, separated proteins are transferred to a membrane and probed.)

In the case of `CCOC(=O)C(C)(C)C(C)O` (stereo not drawn) [HMB], the “expression of CREB” value reads like this: (FL-Ppara) “stimulated”; (lenti-Y314D-Ppara) “only partially restored”; (lenti-Y464D-Ppara) “remained unable to increase”; (lenti-Y464D/Y314D-Ppara) “remained unable to increase”.

`CCCCCCCCC=CCCCCCCCC(N)=O` [OCT, 9-octadecenamide]: the “expression of CREB” value runs as follows: (FL-Ppara) “stimulated”; (lenti-Y314D-Ppara) “only partially restored”; (lenti-Y464D-Ppara) “remained unable to increase”; (lenti-Y464D/Y314D-Ppara) “remained unable to increase”.

Consider `CCCCCCCCCCCCCCCC(N)=O` [HEX, hexadecanamide], for which the “expression of CREB” value by setting is: (FL-Ppara) “stimulated”; (lenti-Y314D-Ppara) “only partially restored”; (lenti-Y464D-Ppara) “remained unable to increase”; (lenti-Y464D/Y314D-Ppara) “remained unable to increase”.

The values are drawn from US10617664B2, “Brain derived PPARα ligands” (Rush University Medical Center, priority 2015, dated 2020).
